Legend:
Format in all cases: in vivo
Xanthium strumarium = assay: Greenhouse trial, post-emergence, visual herbicidal effect; details: Table 5-56, greenhouse, alone, 1 g of a.i./ha
Method: (§1) The weed seeds were sown in pots (diameter 8 cm) with sandy loam soil and germinated under optimum conditions. The herbides were applied by the post-emergence method onto the pots with the cultures, at a spray volume of 300 I/ha. The herbicides were applied on their own and in combination. The trial was conducted in a greenhouse under optimum growth conditions. The herbicidal effects were assessed visually by comparison of untreated and treated plants. The percentages mean: 0%=no effects, 100%=the plants die off completely). The percentages are used to calculate interactions between individual treatments and combination treatment according to S. R. Colby, Weeds 15, pages 20 to 22 (1967).
(§2) The abbreviations denote: • a.i.=active ingredient • E^C=expected value according to Colby (E^C=A+B−A×B100) • Δ=difference (%) of the measured value to the expected value (%) (measured value minus expected value)
(§3) Evaluation: • measured value E is greater than E^C:→synergism (+Δ) • measured value E equals E^C:→additive effect • measured value E is smaller than E^C:→antagonism (−Δ)

Brachiaria platyphylla = assay: as above; details: alone
Method: as §1, §2, §3

Lolium multiflorum = assay: Field trial, post-emergence, visual scoring; details: alone, 25 g of a.i./ha
Method: (§4) The tests were conducted outdoors (plot trials, 10 m^2 per plot, 2 repetitions, spray application with 200-300 liters of water per hectare). Crops and broad-leaved weeds/weed grasses were sown under customary field conditions. In addition, a natural weed flora also appeared. Application was by the post-emergence method. The application rates of the herbicidally active compounds applied on their own or in combinations are likewise shown in the tables below. Evaluations were by visual scoring (using a 0-100% scale) after application by comparison of treated and untreated test variants.
as §2, §3

Euphorbia heterophylla = assay: Field trial, post-emergence, visual scoring
Method: as §4, §2, §3

Galium aparine = assay: Field trial, post-emergence, visual scoring; details: alone
Method: as §4, §2, §3

Alopecurus myosuroides = assay: Field trial, post-emergence, visual scoring; details: Table 5-60, field, alone
Method: as §4, §2, §3

Centaurea cyanis [1] = assay: Field trial, post-emergence, visual scoring; details: Table 5-59, field, alone
Method: as §4, §2, §3

Ambrosia artemisiifolia = assay: Greenhouse trial, post-emergence, visual herbicidal effect; details: Table 5-52, greenhouse, alone, 4 g of a.i./ha
Method: as §1, §2, §3

Polygunum convolvulus = assay: Field trial, post-emergence, visual scoring; details: Table 5-53, field, alone
Method: as §4, §2, §3

Avena fatua = assay: Greenhouse trial, post-emergence, visual herbicidal effect; details: alone
Method: as §1, §2, §3

Phalaris minor = assay: as above; details: Table 5-03, greenhouse, alone, 25 g of a.i./ha
Method: as §1, §2, §3

Viola tricolor = assay: as above; details: alone
Method: as §1, §2, §3

Papaver rhoeas = assay: as above; details: alone
Method: as §1, §2, §3

Polygonum convolvulus = assay: as above; details: alone
Method: as §1, §2, §3

Centaurea cyanis [2] = assay: as above; details: alone
Method: as §1, §2, §3

Portulaca oleracea = assay: Field trial, post-emergence, visual scoring; details: alone
Method: as §4, §2, §3

Amaranthus retroflexus = assay: Field trial, post-emergence, visual scoring; details: Table 5-48, field, alone
Method: as §4, §2, §3

Cassia obtusifolia = assay: Field trial, post-emergence, visual scoring; details: alone
Method: as §4, §2, §3

Veronica hederifolia [3] = assay: Field trial, post-emergence, visual scoring; details: alone, 210 g of a.i./ha
Method: as §4, §2, §3

[4] = tested on: broad-leaved weeds/weed grasses; assay: Field trial, post-emergence, visual scoring (species not listed above); details: dosage 210 g of a.i./ha
Method: as §4, §2, §3

Setaria viridis = assay: Field trial, post-emergence, visual scoring; details: alone
Method: as §4, §2, §3

Sida spinosa = assay: Field trial, post-emergence, visual scoring; details: alone, 10 g of a.i./ha
Method: as §4, §2, §3

Abutilon theophrasti = assay: Field trial, post-emergence, visual scoring; details: Table 5-17, field, alone
Method: as §4, §2, §3

Veronica hederifolia [5] = assay: Greenhouse trial, post-emergence, visual herbicidal effect; details: Table 5-89, greenhouse, alone
Method: as §1, §2, §3

Bidens pilosa = assay: as above; details: alone
Method: as §1, §2, §3

COCc1c(S(C)(=O)=O)ccc(C(=O)Nc2nnnn2C)c1Cl [A1-60]
Activity [%] against Xanthium strumarium (Xanthium strumarium): 25% | Activity [%] against Brachiaria platyphylla (Brachiaria platyphylla; Table 5-55, greenhouse, 1 g of a.i./ha): 0% | Activity [%] against Brachiaria platyphylla (Brachiaria platyphylla; Table 5-57, greenhouse, 2 g of a.i./ha): 40% | Activity [%] against Lolium multiflorum (Lolium multiflorum; Table 5-58, field): 15% | Activity [%] against Euphorbia heterophylla (Euphorbia heterophylla; Table 5-63, field, alone, 25 g of a.i./ha): 30% | Activity [%] against Galium aparine (Galium aparine; Table 5-61, field, 25 g of a.i./ha): 30% | Activity [%] against Galium aparine (Galium aparine; Table 5-62, field, 25 g of a.i./ha): 73% | Activity [%] against Alopecurus myosuroides (Alopecurus myosuroides; 25 g of a.i./ha): 15% | Activity [%] against Centaurea cyanis (Centaurea cyanis [1]; 25 g of a.i./ha): 45%

Cc1ccc(C(=O)Nc2nnnn2C)c(Cl)c1S(C)(=O)=O [A1-49]
Activity [%] against Ambrosia artemisiifolia (Ambrosia artemisiifolia): 80% | Activity [%] against Lolium multiflorum (Lolium multiflorum; Table 5-54, field): 40% | Activity [%] against Polygunum convolvulus (Polygunum convolvulus; 25 g of a.i./ha): 35%

CCOC(=O)[C@@H](C)Oc1ccc(Oc2nc3ccc(Cl)cc3o2)cc1 [fenoxaprop-P-ethyl]
Activity [%] against Avena fatua (Avena fatua; Table 5-01, greenhouse, 25 g of a.i./ha): 0% | Activity [%] against Avena fatua (Avena fatua; Table 5-05, greenhouse, 12.5 g of a.i./ha): 0% | Activity [%] against Avena fatua (Avena fatua; Table 5-07, greenhouse, 12.5 g of a.i./ha): 0% | Activity [%] against Avena fatua (Avena fatua; Table 5-49, greenhouse, 25 g of a.i./ha): 0% | Activity [%] against Phalaris minor (Phalaris minor): 15% | Activity [%] against Viola tricolor (Viola tricolor; Table 5-02, greenhouse, 25 g of a.i./ha): 0% | Activity [%] against Viola tricolor (Viola tricolor; Table 5-09, greenhouse, 12.5 g of a.i./ha): 15% | Activity [%] against Papaver rhoeas (Papaver rhoeas; Table 5-06, greenhouse, 12.5 g of a.i./ha): 20% | Activity [%] against Polygonum convolvulus (Polygonum convolvulus; Table 5-08, greenhouse, 25 g of a.i./ha): 0% | Activity [%] against Centaurea cyanis (Centaurea cyanis [2]; Table 5-50, greenhouse, 25 g of a.i./ha): 0% | Activity [%] against Alopecurus myosuroides (Alopecurus myosuroides; 83 g of a.i./ha): 30%

CCNc1nc(Cl)nc(NC(C)C)n1 [atrazine]
Activity [%] against Portulaca oleracea (Portulaca oleracea; Table 5-13, field, 250 g of a.i./ha): 25% | Activity [%] against Euphorbia heterophylla (Euphorbia heterophylla; Field, dosage 1000 g of a.i./ha): 55% | Activity [%] against Euphorbia heterophylla (Euphorbia heterophylla; Table 5-51, field, alone, 1000 g of a.i./ha): 49% | Activity [%] against Euphorbia heterophylla (Euphorbia heterophylla; Table 5-63, field, alone, 1000 g of a.i./ha): 49% | Activity [%] against Euphorbia heterophylla (Euphorbia heterophylla; Table 5-85, field, alone, 1000 g of a.i./ha): 49% | Activity [%] against Amaranthus retroflexus (Amaranthus retroflexus; 560 g of a.i./ha): 60%

N#Cc1cc(Br)c(O)c(Br)c1 [bromoxynil]
Activity [%] against Cassia obtusifolia (Cassia obtusifolia; Table 5-25, field, 210 g of a.i./ha): 10% | Activity [%] against Veronica hederifolia (Veronica hederifolia [3]; Table 5-66, field): 5% | Activity [%] against Veronica hederifolia (Veronica hederifolia [3]; Table 5-74, field): 5% | Activity [%] against Veronica hederifolia (Veronica hederifolia [3]; Table 5-76, field): 0% | Activity [%] against Veronica hederifolia (Veronica hederifolia [3]; Table 5-79, field): 5% | Activity [%] against Galium aparine (Galium aparine; Table 5-04, field, 210 g of a.i./ha): 13% | Activity [%] against Galium aparine (Galium aparine; Table 5-62, field, 210 g of a.i./ha): 13% | Activity [%] against Galium aparine (Galium aparine; Table 5-92, field, 210 g of a.i./ha): 25% | Activity [%] against Polygunum convolvulus (Polygunum convolvulus; 210 g of a.i./ha): 30% | Activity [%] against Stellaria media ([4]; Table 5-114): 10% | Activity [%] against Stellaria media ([4]; Table 5-116): 5%

CC(C)N(C(=O)COc1nnc(C(F)(F)F)s1)c1ccc(F)cc1 [flufenacet]
Activity [%] against Centaurea cyanis (Centaurea cyanis [1]; 240 g of a.i./ha): 0%

CCCn1nnnc1NC(=O)c1ccc(C(F)(F)F)c(S(C)(=O)=O)c1C [A1-9]
Activity [%] against Cassia obtusifolia (Cassia obtusifolia; Table 5-12, field, 20 g of a.i./ha): 0% | Activity [%] against Cassia obtusifolia (Cassia obtusifolia; Table 5-24, field, 20 g of a.i./ha): 0% | Activity [%] against Cassia obtusifolia (Cassia obtusifolia; Table 5-25, field, 25 g of a.i./ha): 65% | Activity [%] against Portulaca oleracea (Portulaca oleracea; Table 5-13, field, 20 g of a.i./ha): 43% | Activity [%] against Portulaca oleracea (Portulaca oleracea; Table 5-14, field, 20 g of a.i./ha): 43% | Activity [%] against Portulaca oleracea (Portulaca oleracea; Table 5-15, field, 20 g of a.i./ha): 43% | Activity [%] against Portulaca oleracea (Portulaca oleracea; Table 5-16, field, 20 g of a.i./ha): 43% | Activity [%] against Portulaca oleracea (Portulaca oleracea; Table 5-18, field, 20 g of a.i./ha): 43% | Activity [%] against Portulaca oleracea (Portulaca oleracea; Table 5-19, field, 20 g of a.i./ha): 43% | Activity [%] against Portulaca oleracea (Portulaca oleracea; Table 5-20, field, 20 g of a.i./ha): 43% | Activity [%] against Portulaca oleracea (Portulaca oleracea; Table 5-22, field, 10 g of a.i./ha): 38% | Activity [%] against Setaria viridis (Setaria viridis; Table 5-23, field, 10 g of a.i./ha): 15% | Activity [%] against Setaria viridis (Setaria viridis; Table 5-26, field, 25 g of a.i./ha): 7% | Activity [%] against Sida spinosa (Sida spinosa; Table 5-10, field): 60% | Activity [%] against Sida spinosa (Sida spinosa; Table 5-11, field): 60% | Activity [%] against Sida spinosa (Sida spinosa; Table 5-21, field): 60% | Activity [%] against Abutilon theophrasti (Abutilon theophrasti; 20 g of a.i./ha): 78%

Cn1nnnc1NC(=O)c1ccc(S(C)(=O)=O)c(OCC2CC2)c1Cl [A1-74]
Activity [%] against Veronica hederifolia (Veronica hederifolia [5]; 3 g of a.i./ha): 40% | Activity [%] against Papaver rhoeas (Papaver rhoeas; Table 5-86, greenhouse, 3 g of a.i./ha): 30% | Activity [%] against Papaver rhoeas (Papaver rhoeas; Table 5-87, greenhouse, 3 g of a.i./ha): 40% | Activity [%] against Polygonum convolvulus (Polygonum convolvulus; Table 5-88, greenhouse, 3 g of a.i./ha): 0%

CCc1cc(C)cc(CC)c1-c1c(OC(=O)C(C)(C)C)n2n(c1=O)CCOCC2 [pinoxaden]
Activity [%] against Veronica hederifolia (Veronica hederifolia [5]; 10 g of a.i./ha): 20% | Activity [%] against Viola tricolor (Viola tricolor; Table 5-42, greenhouse, 10 g of a.i./ha): 0% | Activity [%] against Papaver rhoeas (Papaver rhoeas; Table 5-39, greenhouse, 5 g of a.i./ha): 0% | Activity [%] against Papaver rhoeas (Papaver rhoeas; Table 5-41, greenhouse, 10 g of a.i./ha): 10% | Activity [%] against Papaver rhoeas (Papaver rhoeas; Table 5-86, greenhouse, 10 g of a.i./ha): 0% | Activity [%] against Papaver rhoeas (Papaver rhoeas; Table 5-87, greenhouse, 10 g of a.i./ha): 50% | Activity [%] against Polygonum convolvulus (Polygonum convolvulus; Table 5-88, greenhouse, 10 g of a.i./ha): 0% | Activity [%] against Centaurea cyanis (Centaurea cyanis [2]; Table 5-38, greenhouse, 5 g of a.i./ha): 0% | Activity [%] against Centaurea cyanis (Centaurea cyanis [2]; Table 5-40, greenhouse, 5 g of a.i./ha): 15%

CCc1c(C(=O)Nc2nnnn2C)ccc(Cl)c1SC [A1-36]
Activity [%] against Bidens pilosa (Bidens pilosa; Table 5-46, greenhouse, 2 g of a.i./ha): 45% | Activity [%] against Bidens pilosa (Bidens pilosa; Table 5-47, greenhouse, 4 g of a.i./ha): 30% | Activity [%] against Brachiaria platyphylla (Brachiaria platyphylla; Table 5-45, greenhouse, 2 g of a.i./ha): 25% | Activity [%] against Amaranthus retroflexus (Amaranthus retroflexus; 50 g of a.i./ha): 0%

COC[C@H](C)N(C(=O)CCl)c1c(C)csc1C [dimethenamide-P]
Activity [%] against Abutilon theophrasti (Abutilon theophrasti; 500 g of a.i./ha): 25%
